From PubChem BioAssay (NCI)
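Protocol summary: plate cells (96-well), add compound at 5 concentrations, incubate 48 h, interpolate endpoints linearly. GI50 is the concentration that inhibits growth by half. At the TGI there is no net growth.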

Key:
Test in all cases: NCI anticancer screen, dose series, 48 h
MDA-MB-435 = test system: MDA-MB-435
SK-OV-3 ovarian = test system: SK-OV-3 ovarian
UACC-257 melanoma = test system: UACC-257 melanoma
OVCAR-8 ovarian = test system: OVCAR-8 ovarian
SK-MEL-28 melanoma = test system: SK-MEL-28 melanoma
K-562 leukemia = test system: K-562 leukemia
SF-539 CNS = test system: SF-539 CNS
A549 NSCLC = test system: A549 NSCLC
BT-549 breast = test system: BT-549 breast
HCT-15 colon = test system: HCT-15 colon
OVCAR-4 ovarian = test system: OVCAR-4 ovarian
MCF7 breast = test system: MCF7 breast
786-0 renal = test system: 786-0 renal
MALME-3M melanoma = test system: MALME-3M melanoma
UO-31 renal = test system: UO-31 renal
SR leukemia = test system: SR leukemia
LOX IMVI melanoma = test system: LOX IMVI melanoma
PC-3 prostate = test system: PC-3 prostate
NCI-H522 lung = test system: NCI-H522 lung
HL-60(TB) leukemia = test system: HL-60(TB) leukemia
RXF 393 renal = test system: RXF 393 renal
IGROV1 ovarian = test system: IGROV1 ovarian
SNB-19 CNS = test system: SNB-19 CNS
HOP-62 NSCLC = test system: HOP-62 NSCLC
UACC-62 melanoma = test system: UACC-62 melanoma
ACHN renal = test system: ACHN renal
SN12C renal = test system: SN12C renal
NCI-H460 lung = test system: NCI-H460 lung

O=C1NN2CC(c3ccccc3)=NN=C2c2ccccc21
GI50 (MDA-MB-435): 36.7 µM | TGI (MDA-MB-435): > 100 µM | GI50 (SK-OV-3 ovarian): 24.2 µM | TGI (SK-OV-3 ovarian): 51 µM | GI50 (UACC-257 melanoma): 59.1 µM | TGI (UACC-257 melanoma): > 100 µM | GI50 (OVCAR-8 ovarian): 29.1 µM | TGI (OVCAR-8 ovarian): 74 µM | GI50 (SK-MEL-28 melanoma): 28.1 µM | TGI (SK-MEL-28 melanoma): > 100 µM | GI50 (K-562 leukemia): 28.2 µM | TGI (K-562 leukemia): > 100 µM | GI50 (SF-539 CNS): 25.8 µM | TGI (SF-539 CNS): 56.8 µM | GI50 (A549 NSCLC): 28.6 µM | TGI (A549 NSCLC): 70.8 µM | GI50 (BT-549 breast): 24.5 µM | TGI (BT-549 breast): 57 µM | GI50 (HCT-15 colon): 24.4 µM | TGI (HCT-15 colon): 86.3 µM | GI50 (OVCAR-4 ovarian): 61 µM | TGI (OVCAR-4 ovarian): > 100 µM | GI50 (MCF7 breast): 15.8 µM | TGI (MCF7 breast): 37.2 µM | GI50 (786-0 renal): 26.2 µM | TGI (786-0 renal): 72.3 µM | GI50 (MALME-3M melanoma): 32.1 µM | TGI (MALME-3M melanoma): 87.6 µM | GI50 (UO-31 renal): 28 µM | TGI (UO-31 renal): 66.6 µM | GI50 (SR leukemia): 0.507 µM | TGI (SR leukemia): 42 µM | GI50 (LOX IMVI melanoma): 22.6 µM | TGI (LOX IMVI melanoma): 47 µM | GI50 (PC-3 prostate): 12.6 µM | TGI (PC-3 prostate): 33.8 µM | GI50 (NCI-H522 lung): 34.7 µM | TGI (NCI-H522 lung): 77.1 µM | GI50 (HL-60(TB) leukemia): 19.9 µM | TGI (HL-60(TB) leukemia): 56.8 µM | GI50 (RXF 393 renal): 23 µM | TGI (RXF 393 renal): 48.4 µM | GI50 (IGROV1 ovarian): 42.8 µM | TGI (IGROV1 ovarian): > 100 µM | GI50 (SNB-19 CNS): 20.5 µM | TGI (SNB-19 CNS): 44.7 µM | GI50 (HOP-62 NSCLC): 35 µM | TGI (HOP-62 NSCLC): > 100 µM | GI50 (UACC-62 melanoma): 22.6 µM | TGI (UACC-62 melanoma): 49.5 µM | GI50 (ACHN renal): 36.9 µM | TGI (ACHN renal): > 100 µM | GI50 (SN12C renal): 29.1 µM | TGI (SN12C renal): 78.3 µM | GI50 (NCI-H460 lung): 30.3 µM | TGI (NCI-H460 lung): 92.6 µM
